The results in this text go back to ChEMBL document CHEMBL4680273, “Teixobactin: A Paving Stone toward a New Class of Antibiotics?” (2020).

Converted amounts (≈) assume the structure as drawn.

What all share (format): functional
Assay [1] deals with Staphylococcus aureus. The assay is described as follows: Antibacterial activity against methicillin- resistant Staphylococcus aureus TH4115 incubated for 16 to 20 hrs by CLSI-based broth microdilution method. To be noted: time 16-20 hrs. For orientation: Broth dilution looks for growth in wells or tubes with falling amounts of substance.
Assay [2] has as its system Staphylococcus aureus. The assay is described as follows: Antibacterial activity against Staphylococcus aureus TH4112 incubated for 16 to 20 hrs by CLSI-based broth microdilution method. To be noted: time 16-20 hrs.
The subject of assay [3] is Staphylococcus aureus. The assay is described as follows: Antibacterial activity against Staphylococcus aureus ATCC 29213 incubated for 20 hrs by CLSI-based broth microdilution checkerboard method.
In assay [4] the test system is Staphylococcus aureus. Put plainly: Antibacterial activity against Staphylococcus aureus ATCC 29213 incubated for 16 hrs by UV/Visible absorbance method.
Assay [5] concerns Staphylococcus epidermidis. Put plainly: Antibacterial activity against Staphylococcus epidermidis ATCC 14990 incubated for 16 hrs by UV/Visible absorbance method.
The test system of assay [6] is Staphylococcus aureus. The assay is described as follows: Antibacterial activity against Staphylococcus aureus SH1000 incubated for 24 hrs by CLSI-broth microdilution method. To be noted: Staphylococcus aureus, SH1000, read-out: MIC.
The next assay has as its system Pseudomonas aeruginosa. Put plainly: Antibacterial activity against Pseudomonas aeruginosa PAO1 incubated for 24 hrs in presence of colistin by Checkerboard assay.
In assay [7] the test system is Bacillus subtilis. Put plainly: Antibacterial activity against Bacillus subtilis ATCC 6051 incubated for 24 hrs by CLSI based broth microdilution method.
The test system of assay [8] is Staphylococcus aureus. Put plainly: Antibacterial activity against Staphylococcus aureus.
Assay [9] concerns Staphylococcus aureus. The assay is described as follows: Antibacterial activity against Staphylococcus aureus 25923 incubated for 24 hrs by CLSI based broth microdilution method.
A further assay concerns Bacillus spizizenii. The assay is described as follows: Antibacterial activity against Bacillus subtilis ATCC 6633 by M07-A9 CLSI method.
In assay [10] the test system is Staphylococcus aureus. Put plainly: Antibacterial activity against methicillin resistant Staphylococcus aureus USA300.
Assay [11] relates to Staphylococcus aureus. Put plainly: Antibacterial activity against methicillin resistant Staphylococcus aureus.
Assay [12] has as its system Bacillus subtilis. Put plainly: Antibacterial activity against Bacillus subtilis ATCC 6051 incubated for 16 hrs by UV/Visible absorbance method.
Assay [13] concerns Bacillus subtilis. Put plainly: Antibacterial activity against Bacillus subtilis ATCC 6051 incubated for 16 hrs by two-fold serial dilution method.
Assay [14] concerns Staphylococcus epidermidis. The assay is described as follows: Antibacterial activity against Staphylococcus epidermidis ATCC 14990 incubated for 16 hrs by two-fold serial dilution method.
Another assay has as its system Enterococcus durans. Put plainly: Antibacterial activity against Enterococcus durans ATCC 6056 incubated for 16 hrs by two-fold serial dilution method.
The test system of assay [15] is Staphylococcus aureus. Put plainly: Antibacterial activity against Staphylococcus aureus ATCC 29213 incubated for 16 hrs by two-fold serial dilution method.
In the next assay the test system is Streptococcus salivarius. Put plainly: Antibacterial activity against Streptococcus salivarius ATCC 13419 incubated for 16 hrs by two-fold serial dilution method.
Assay [16] deals with Staphylococcus aureus. The assay is described as follows: Antibacterial activity against methicillin resistant Staphylococcus aureus ATCC 33591 infected in iv dosed CD1 mouse model of septicemia assessed as protection against lethal infection administered as single dose starting from 1 hr post infection and measured 48 hrs post infection relative to control. The note with it: ATCC 33591, iv, time 47 hrs, read-out: PD50.

For `CC[C@H](C)[C@H](NC(=O)[C@@H](Cc1ccc(-c2ccccc2)cc1)NC)C(=O)N[C@@H](CO)C(=O)N[C@H](CCCNC(=N)N)C(=O)N[C@@H](C(=O)N[C@H](C(=O)N[C@@H](CO)C(=O)N[C@H]1C(=O)N[C@@H](C)C(=O)N[C@@H](C[C@H]2CNC(=N)N2)C(=O)N[C@@H]([C@@H](C)CC)C(=O)O[C@H]1C)[C@@H](C)CC)[C@@H](C)CC`, the MIC in the assay on Staphylococcus aureus [1] and in the assay on Staphylococcus aureus [2] was 0.25 µg/mL (≈ 0.186 µM) each time.

Consider `CC[C@H](C)[C@H](NC(=O)[C@@H](Cc1ccccc1)NC)C(=O)N[C@@H](CO)C(=O)N[C@H](CCC(N)=O)C(=O)N[C@@H](C(=O)N(C)[C@H](C(=O)N[C@@H](CO)C(=O)N[C@H]1C(=O)N[C@@H](C)C(=O)N[C@@H](CCCCN)C(=O)N[C@@H]([C@@H](C)CC)C(=O)O[C@H]1C)[C@@H](C)CC)[C@@H](C)CC`, for which the minimal inhibitory concentration (MIC) (commonly the least concentration at which growth counts as inhibited) with Staphylococcus aureus [3] was 16 µg/mL.

Consider `CC[C@H](C)[C@H](NC(=O)[C@@H](Cc1ccccc1)NC)C(=O)N[C@@H](CO)C(=O)N(C)[C@H](CCC(N)=O)C(=O)N[C@@H](C(=O)N[C@H](C(=O)N[C@@H](CO)C(=O)N[C@H]1C(=O)N[C@@H](C)C(=O)N[C@@H](CCCCN)C(=O)N[C@@H]([C@@H](C)CC)C(=O)O[C@H]1C)[C@@H](C)CC)[C@@H](C)CC`, for which the MIC (in the assay with Staphylococcus aureus [4]; in [5]) was 16 µg/mL (≈ 13 µM) in each case.

In the case of `CCCCC1NC(=O)C(CCCC(F)(F)F)NC(=O)[C@H](C)NC(=O)[C@H](NC(=O)[C@H](CO)NC(=O)[C@@H](NC(=O)[C@H](NC(=O)[C@@H](CCC(N)=O)NC(=O)[C@H](CO)NC(=O)[C@@H](NC(=O)[C@@H](Cc2ccccc2)NC)[C@@H](C)CC)[C@@H](C)CC)[C@@H](C)CC)[C@H](C)OC1=O` (some centres undefined), the MIC came to 8 µg/mL (≈ 6.37 µM) in the assay on Staphylococcus aureus [6] and 32 µg/mL in the assay with Pseudomonas aeruginosa.

Consider `CC[C@H](C)[C@H](NC(=O)[C@@H](Cc1ccccc1)NC)C(=O)N[C@@H](CO)C(=O)N[C@H](CCC(N)=O)C(=O)N[C@@H](C(=O)N[C@H](C(=O)N[C@@H](CO)C(=O)N[C@H]1C(=O)N[C@@H](C)C(=O)N[C@@H](CCCNC(=N)N)C(=O)N[C@@H]([C@@H](C)CC)C(=O)O[C@H]1C)[C@@H](C)CC)[C@@H](C)CC`, for which the MIC in the assay with Bacillus subtilis [7] was 0.4 µg/mL (≈ 0.321 µM); in the assay with Staphylococcus aureus [8], 2 µg/mL (≈ 1.61 µM); in the assay with Staphylococcus aureus [9] it was 1.6 µg/mL (≈ 1.29 µM).

Turning to `CCCCC1NC(=O)[C@H](CCCNC(=N)N)NC(=O)[C@H](C)NC(=O)[C@H](NC(=O)[C@H](CO)NC(=O)[C@@H](NC(=O)[C@H](NC(=O)[C@@H](CCC(N)=O)NC(=O)[C@H](CO)NC(=O)[C@@H](NC(=O)[C@@H](Cc2ccccc2)NC)[C@@H](C)CC)[C@@H](C)CC)[C@@H](C)CC)[C@H](C)OC1=O` (some centres undefined), the minimal inhibitory concentration (MIC) in the assay with Staphylococcus aureus [6] was 8 µg/mL (≈ 6.43 µM); in the assay on Pseudomonas aeruginosa, 64 µg/mL.

Regarding `CC[C@H](C)[C@H](NC(=O)[C@@H](Cc1ccccc1)NC)C(=O)N[C@@H](CO)C(=O)N[C@H](CCC(N)=O)C(=O)N[C@@H](C(=O)N[C@H](C(=O)N[C@@H](CO)C(=O)N[C@H]1C(=O)N[C@@H](C)C(=O)N[C@@H](Cc2ncc[nH]2)C(=O)N[C@@H]([C@@H](C)CC)C(=O)O[C@H]1C)[C@@H](C)CC)[C@@H](C)CC`, the minimum inhibitory concentration (MIC) with Bacillus spizizenii stood at 8 µg/mL (≈ 6.53 µM); in the assay with Staphylococcus aureus [10], 16 µg/mL (≈ 13.1 µM); in the assay with Staphylococcus aureus [11] it was 2 µg/mL (≈ 1.63 µM).

Take `CC[C@@H](C)[C@H](NC(=O)[C@H](CCC(N)=O)NC(=O)[C@@H](CO)NC(=O)[C@H](NC(=O)[C@H](Cc1ccccc1)NC)[C@H](C)CC)C(=O)N[C@@H](C(=O)N[C@H](CO)C(=O)N[C@@H]1C(=O)N[C@H](C)C(=O)N[C@H](CCCNC(=N)N)C(=O)N[C@H]([C@H](C)CC)C(=O)O[C@@H]1C)[C@H](C)CC`: the MIC (against Bacillus subtilis [12]; in assay [5]) was 2 µg/mL (≈ 1.61 µM) in each case.

Turning to `CC[C@H](C)[C@@H]1NC(=O)[C@H](C[C@H]2CNC(=N)N2)NC(=O)[C@H](C)NC(=O)[C@H](NC(=O)[C@H](CO)NC(=O)[C@@H](NC(=O)[C@H](NC(=O)[C@@H](CCC(N)=O)NC(=O)[C@H](CO)NC(=O)[C@@H](NC(=O)[C@@H](Cc2ccccc2)NC)[C@@H](C)CC)[C@@H](C)CC)[C@@H](C)CC)CNC1=O`, 0.185 µg/mL (≈ 0.151 µM) was the least that counted as inhibitory against Staphylococcus aureus [2] (MIC).

`CC[C@H](C)[C@H](NC(=O)[C@@H](Cc1ccccc1)NC)C(=O)N[C@@H](CO)C(=O)N[C@H](CCC(N)=O)C(=O)N[C@@H](C(=O)N[C@H](C(=O)N[C@@H](CO)C(=O)N[C@H]1C(=O)N[C@@H](CCCCNS(=O)(=O)c2ccc(-c3c4ccc(=[N+](CC)CC)cc-4oc4cc(N(CC)CC)ccc34)c(S(=O)(=O)[O-])c2)C(=O)N[C@@H](CCCNC(=N)N)C(=O)N[C@@H]([C@@H](C)CC)C(=O)O[C@H]1C)[C@@H](C)CC)[C@@H](C)CC`: the minimal inhibitory concentration (MIC) is 4 µg/mL (≈ 2.17 µM) against Bacillus subtilis [13]; 8 µg/mL (≈ 4.34 µM) in [14]; 8 µg/mL (≈ 4.34 µM) in the assay on Enterococcus durans; 8 µg/mL (≈ 4.34 µM) with Staphylococcus aureus [15]; 4 µg/mL (≈ 2.17 µM) against Streptococcus salivarius.

Take `CN[C@H](CC(C)C)C(=O)N[C@H]1C(=O)N[C@@H](CC(N)=O)C(=O)N[C@H]2C(=O)N[C@H]3C(=O)N[C@H](C(=O)N[C@H](C(=O)O)c4cc(O)cc(O)c4-c4cc3ccc4O)[C@H](O)c3ccc(c(Cl)c3)Oc3cc2cc(c3O[C@@H]2O[C@H](CO)[C@@H](O)[C@H](O)[C@H]2O[C@H]2C[C@](C)(N)[C@H](O)[C@H](C)O2)Oc2ccc(cc2Cl)[C@H]1O` [VANCOMYCIN]: in the assay on Staphylococcus aureus [16], the ED50 stood at 2.75 mg/kg.
